Results as given in patent publication US5766871A, “Screening and characterization of glutaryl-7-aminocephalosporanic acid acylase” (priority 1996, dated 1998).

Columns and labels:
[1] = test system: P. nitroreducens ATCC 33634; experiment: Effect of composition of media on production of GL-7-ACA acylase; type: cell-based, Pseudomonas nitroreducens
Procedure: (§1) Colonies forming clear zones were cultivated in Nutrient Broth (Difco, Detroit, Mich.) and tested for GL-7-ACA acylase activity as described by Shibuya et al. (Agric. Biol. Chem. 45: 1561-1567, 1981). The whole-cell suspension of ATCC 33634 in 100 mM acetate buffer (pH 5.0) was used as the acylase source. One unit of the acylase activity was defined as the amount of enzyme that liberates 1 μmole of […] per min.
To obtain the optimal medium for P. nitroreducens ATCC 33634 cultivation, various media were tested according to the report of Nikolov and Danielsson (Enzyme Microbiol. Technol. 16: 1031-1036, 1994) (Table 1). The cultivation was carried out in 500 ml flasks containing 100 ml of media (Table 1) at 30° C. and 150 rpm for 24 hr. All media were adjusted to pH 7.5 before autoclaving. Yeast extract, casein, peptone, and meat extract were purchased from Difco Laboratories Inc. (Detroit, Mich.).

[2] = target: T1, GL-7-ACA acylase of P. nitroreducens ATCC 33634 (Pseudomonas nitroreducens, UniProt E0D5C2); experiment: Substrate profile of GL-7-ACA acylase, whole cells of ATCC 33634; type: biochemical; conditions: for relative activity (percentage relative to the activity for GL7-ACA): whole cells of ATCC 33634, 0.2 g/l substrate, 37° C., 3 hr; for activity as substrate, in words: cells of ATCC 33634, compared with GL-7-ACA
T1 construct: periplasmic
T1 sequence (E0D5C2 24-556): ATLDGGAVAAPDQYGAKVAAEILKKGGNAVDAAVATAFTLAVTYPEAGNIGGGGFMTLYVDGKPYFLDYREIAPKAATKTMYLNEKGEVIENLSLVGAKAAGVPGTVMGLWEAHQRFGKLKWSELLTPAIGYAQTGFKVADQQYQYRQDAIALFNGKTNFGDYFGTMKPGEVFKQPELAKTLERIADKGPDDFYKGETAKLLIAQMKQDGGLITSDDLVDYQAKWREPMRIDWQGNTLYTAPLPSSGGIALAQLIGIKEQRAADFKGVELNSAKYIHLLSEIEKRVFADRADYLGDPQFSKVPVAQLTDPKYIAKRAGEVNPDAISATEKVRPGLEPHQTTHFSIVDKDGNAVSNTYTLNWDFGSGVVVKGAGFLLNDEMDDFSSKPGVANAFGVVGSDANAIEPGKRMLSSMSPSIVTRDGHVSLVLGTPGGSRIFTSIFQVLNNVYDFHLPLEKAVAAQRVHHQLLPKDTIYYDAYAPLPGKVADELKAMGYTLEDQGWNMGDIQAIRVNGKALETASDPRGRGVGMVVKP
T1 sequence (E0D5C2 25-556 partner): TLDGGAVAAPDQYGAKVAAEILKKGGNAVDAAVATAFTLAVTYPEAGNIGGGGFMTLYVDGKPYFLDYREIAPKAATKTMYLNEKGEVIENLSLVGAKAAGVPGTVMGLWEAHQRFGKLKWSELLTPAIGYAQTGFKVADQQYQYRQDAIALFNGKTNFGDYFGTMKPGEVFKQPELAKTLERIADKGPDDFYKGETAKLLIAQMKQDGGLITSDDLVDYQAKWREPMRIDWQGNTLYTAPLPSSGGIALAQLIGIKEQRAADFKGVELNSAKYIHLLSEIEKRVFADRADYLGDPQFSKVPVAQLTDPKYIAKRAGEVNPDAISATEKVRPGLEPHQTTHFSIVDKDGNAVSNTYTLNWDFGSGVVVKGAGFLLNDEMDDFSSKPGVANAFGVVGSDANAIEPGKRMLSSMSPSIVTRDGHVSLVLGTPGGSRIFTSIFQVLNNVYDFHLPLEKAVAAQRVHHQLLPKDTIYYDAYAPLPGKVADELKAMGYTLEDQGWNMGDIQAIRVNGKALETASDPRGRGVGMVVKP
Procedure: as §1
Cells of ATCC 33634 were used to convert GL-7-ACA and related compounds (Table 2). GL-7-ACA, GL-7-ADCA, and succinyl-7-ACA were prepared according to the method of Shibuya et al. (Agric. Biol. Chem. 45: 1561-1567, 1981).
^a The relative GL7-ACA acylase activity was presented as percentage
relative to the activity for GL7-ACA. Whole cells of ATCC 33634 were
incubated with 0.2 g/l of GL7-ACA, GL7-ADCA, succinyl 7ACA, or Ceph C at […]

[3] = target: T1, GL-7-ACA acylase of P. nitroreducens ATCC 33634; experiment: Effect of various inhibitors on the acylase activity; type: biochemical
Procedure: It has been reported that the activity of GL-7-ACA acylases can be inhibited by their own products, e.g., 7-ACA and glutaric acid. Thus, the inhibitory effects of various compounds on the present acylase were tested (Table 4). The compounds were 7-ACA, glutaric acid, glutamate, succinyl-7-ACA, and Ceph C, all of which were used at 20 mM.

Compound | relative activity (percentage relative to the activity for GL7-ACA) [2] | activity as substrate, in words [2] | also measured
O=C(O)CCCC(=O)O [Glutaric acid, glutaric acid] |  |  | inhibition of the enzyme activity ([1]; glutaric acid at 0.12%): up to 50%; induction of GL-7-ACA acylase activity ([1]; in ATCC 33634): did not induce; lowest concentration that inhibited the acylase activity ([1]; in ATCC 33634): 0.02%
CC(=O)OCC1=C(C(=O)O)N2C(=O)[C@@H](NC(=O)CCCC(=O)O)[C@H]2SC1 [GL-7-ACA, glutaryl-7-aminocephalo-sporanic acid] | 100% |  | 
CC(=O)OCC1=C(C(=O)O)N2C(=O)[C@@H](NC(=O)CCC[C@@H](N)C(=O)O)[C@H]2SC1 [Ceph C, cephalosporin C] | not detected | No activity was detected | 
CC1=C(C(=O)O)N2C(=O)[C@@H](NC(=O)CCCC(=O)O)[C@H]2SC1 [GL-7-ADCA, glutaryl-desacetoxy-7-aminocephalosporanic acid] | 294% | nearly three times more activity | 
CC(=O)OCC1=C(C(=O)O)N2C(=O)[C@@H](NC(=O)CCC(=O)O)[C@H]2SC1 [Succinyl-7ACA, succinyl-7-ACA] | not detected | No activity was detected | 
N[C@@H](CCC(=O)O)C(=O)O [Glutamate, glutamate] |  |  | Relative activity (%) of acylase with inhibitor [3]: < 1%
CC(=O)OCC1=C(C(=O)O)N2C(=O)[C@@H](N)[C@H]2SC1 [7-ACA, 7-Aminocephalosporanic acid] |  |  | inhibitory effect, in words ([3]; compounds used at 20 mM): strongest inhibitory effects
